One molecule from publication PMC6437058 (mBio, 2019) can be followed below.

pIC50: −log10 of the molar value.

The test has as its target anthranilate synthase TrpE (Rv1609) (Mycobacterium tuberculosis, UniProt P9WFX3). The experiment in a line: biochemical.

Chain of anthranilate synthase TrpE (Rv1609) (P9WFX3 whole entry): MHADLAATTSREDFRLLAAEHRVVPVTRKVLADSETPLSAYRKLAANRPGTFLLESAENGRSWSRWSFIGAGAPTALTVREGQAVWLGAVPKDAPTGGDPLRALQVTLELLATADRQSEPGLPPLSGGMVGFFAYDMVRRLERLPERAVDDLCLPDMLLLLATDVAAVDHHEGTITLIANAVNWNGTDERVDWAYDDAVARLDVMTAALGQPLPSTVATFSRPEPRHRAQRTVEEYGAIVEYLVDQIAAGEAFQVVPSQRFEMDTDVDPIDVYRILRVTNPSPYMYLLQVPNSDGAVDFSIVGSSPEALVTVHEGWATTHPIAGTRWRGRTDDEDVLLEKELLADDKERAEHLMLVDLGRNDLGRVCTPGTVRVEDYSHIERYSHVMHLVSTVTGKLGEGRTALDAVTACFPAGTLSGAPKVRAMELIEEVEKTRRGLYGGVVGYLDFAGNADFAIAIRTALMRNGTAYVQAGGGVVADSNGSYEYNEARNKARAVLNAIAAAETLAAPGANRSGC

One may read the pIC50 as the negative decadic logarithm of the IC50, by convention in mol/L. Higher therefore signals a low IC50. As to `N[C@@H](Cc1c[nH]c2ccc(F)cc12)C(=O)O` [F-Trp, 5-fluoro-L-tryptophan], the pIC50 is 5.39.
